# Laboratory results as given in PMC3767936 (Journal of cellular biochemistry, 2010).
# Biological target: T1, 20S proteasome (chymotrypsin-like activity) (Oryctolagus cuniculus, UniProt G1T4Q9)
# T1 sequence (G1T4Q9 1-263): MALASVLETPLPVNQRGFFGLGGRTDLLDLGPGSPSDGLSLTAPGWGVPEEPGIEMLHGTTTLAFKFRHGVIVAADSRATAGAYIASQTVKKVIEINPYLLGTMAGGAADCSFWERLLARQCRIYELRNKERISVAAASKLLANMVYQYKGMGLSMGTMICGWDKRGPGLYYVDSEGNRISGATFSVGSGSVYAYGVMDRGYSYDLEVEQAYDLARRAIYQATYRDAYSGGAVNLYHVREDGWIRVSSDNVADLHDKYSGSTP
# Assay: fluorogenic Suc-LLVY-AMC hydrolysis by purified […] proteasome, […] h at […]°C
# Assay type: biochemical
structure (smiles),measurement,value
"CCOC(=O)CN(C)C1=[S+][Au-]([Br])([Br])[S]1 [AUL12, [AuBr2(ESDT)]]",IC50,1.13 µM
